Several values for one entry are separate records, joined by “and”; a condition that tells them apart may be missing. Equal values may be shown once. Read-outs that look alike come from different tables or passages of the source.
Experiments:
[1] = test system: PHE-precontracted rat aorta with endothelium (E+); experiment: Vasodilator effect in PHE-precontracted rat aortic rings with intact endothelium (E+); assay type: cell-based; conditions: for EC50: read-out: EC50 (concentration required to achieve 50% relaxation of tissue)
Experimental: (§1) 3-5 months old rats with an average weight of 270±30 g, were used for vascular reactivity experiments.
(§2) Measure of Dilation Activity in Rat Aortic Rings
(§3) Obtaining Aorta rings: Group II rats fasted 24 hours were euthanized by cervical fracture. Thoracic aorta was excised carefully from distal to proximal, from the abdominal aortic bifurcation to aortic arch and placed in a Petri dish containing Krebs-Ringer solution at room temperature with the following composition: 120 mM NaCl; 4.2 mM KCl; 1.18 mM KH2PO4; 1.2 mM MgSO4; 1.3 mM CaCl2; 5 mM C6H12O6; and 25 mM NaHCO3 pH 7.4 and constantly gasified with a mixture of 95% O2 and 5% CO2. After removing blood, fat and connective tissue, the aorta was transversely cut in cylindrical rings 2-3 mm in diameter.
(§4) Mounting of Rings: Each ring was mounted between two triangular stainless steel hooks, one hook was suspended in a glass rod (anchorage) and placed in a Single Organ Chamber with 10 ml Krebs-Ringer constantly aerated with 95% O2 and 5% CO2 gaseous mixture and maintained at 37° C. by thermo regulated pump. The second hook was connected by a thread to an Isometric Force Transducer XDCR (Radnoti Glass Technology Inc. USA.), connected to a data acquisition unit PowerLab 8/30 (ADInstruments). The data were processed using LabChart 7 Pro software, provided by ADInstruments.
(§5) Conditioning of Tissue: After being mounted rings were left to rest with no tension for 30 minutes. Subsequently Krebs-Ringer solution was replaced and rings were allowed to rest for 10 minutes. The rings were then carefully tensioned twice at intervals of 10 minutes each at 1.00 g tension value using micromanipulators. Two settings of tension at 1.40 g at 10 minutes interval each were then made. After the period of stabilization of the tissue, tissue viability was assessed by the addition of solution of 60 mM potassium chloride (KCl). After 10 minutes of contraction of the tissue, it was washed twice at intervals of 5 minutes each before the next addition of KCl.
(§6) Measure of vasodilatory activity: The aortic tissue with endothelium already conditioned was applied a tension of 1.4 g, 1 μM PHE solution was added after 10 minutes. PHE was added cumulatively to each single organ bath after stabilization of PHE-induced contractile response. Stock solutions of 10^−1 M concentration in DMSO were prepared to determine the vasodilatory activity of the isolated metabolites. […] The vasodilator effect was recorded for a period of 30 minutes for each of the concentrations used (FIG. 1). The results are expressed as relaxation percent using the following formula: […]
(§7) wherein R1 is the response induced by PHE and R2 is the response after the extracts are added.
(§8) Endothelium integrity was tested by addition of 1 μM ACh to rings precontracted with 1 uM PHE, and rings were considered with intact endothelium when the ACh dilator response was greater than 80%. While rings with response lower than 10% were discarded (FIG. 2).
(§9) Vascular reactivity experiments were performed to establish the vasodilator action of the isolated compounds. For this, compounds at concentration of 10^−4M were added to the organ chamber, the vasodilatory effect in rings with intact endothelium (E+) and without endothelium (E−) pre-contracted with 1 μM PHE was quantified. We performed parallel vehicle control (DMSO) to discard the relaxing effect of aortic tissue.

[2] = test system: anesthetized rats; experiment: In vivo hypotensive effect in anesthetized rats (mean blood pressure after intravenous administration); conditions: for % MBP reduction / MBP: mean ± SE
Experimental: Animals used were female albino rats of the Sprague-Dawley strain, obtained from the vivarium of the Universidad de Antofagasta. Two groups of animals were used separated by age:
10-14 months old rats with an average weight of 400±70 g, were used for in vivo experiments. These animals were chosen according to their baseline health status of mild hypertension.
In Vivo Tests—Hypotensive Effect in Anesthetized Rats In vivo experiments were performed using the following protocol. Group I rats were anesthetized with a 5% sodium thiopental aqueous solution at doses of 50 mg/kg animal body weight by intraperitoneal injection. The femoral vein was exposed and cannulated with a PE-10 […] catheter for administering extracts, metabolites and drugs. The right carotid artery was exposed and cannulated using a PE-50 […] catheter filled with heparinized saline (100 IU/mL). This catheter was connected to a pressure transducer (TSD104A) coupled to a data acquisition unit MP100 (BIOPAC Systems Inc) for recording blood pressure. The trachea was exposed and cannulated to facilitate spontaneous breathing of animals. Simultaneously, an ECG recording in derivation II (DII-ECG) was performed using an ECG100B (BIOPAC Systems Inc) module connected to a data acquisition unit MP100. The level of anesthesia of the animals was under constant supervision, so as to remain within surgical levels.
Prior to administration of the next dose, blood pressure and ECG recording were monitored until complete recovery of baseline parameters (pressure and ECG). Effects of each administered dose was measured relative to changes in mean blood pressure, diastolic blood pressure, systolic blood pressure, electrocardiographic changes and compared against the effect of propranolol as a positive control at concentration of 10 mg/Kgweight. After completion of each experiment animals were euthanized by an overdose of anesthetic, by femoral route. The results are expressed as % reduction in BMP, parameter determined using the following equation.
Wherein B is the baseline BMP and E is the value of BMP produced by different doses studied.
All records were performed using 3.9.6.1 Acknowledge software (BIOPAC Systems Inc) and statistical analysis was performed using GraphPad Prism 5.03 software (GraphPad Software Inc.)

[3] = test system: PHE-precontracted rat aorta without endothelium (E−); experiment: Vasodilator effect in PHE-precontracted rat aortic rings without endothelium (E−); assay type: cell-based; conditions: for Emax at 100 µM: read-out: Emax, maximum relaxation effect; for EC50: dose-response curve; for Emax: read-out: Emax (% relaxation) of dose-response curve
Experimental: as §1, §2, §3, §4, §5, §6, §7, §8, §9

[4] = positive control, propranolol 10^−6 M
[5] = Rattus norvegicus, compound at 10^−4 M, rings with intact endothelium (E+) pre-contracted with 1 μM PHE, FIG. 5A, read-out: Emax (% relaxation)
[6] = Rattus norvegicus, dose-response curve, E+
[7] = Rattus norvegicus, maximum effect at 10^−4 M, increasing doses, E+, read-out: Emax (% relaxation) of dose-response curve
[8] = Rattus norvegicus, compound at 10^−4 M, rings without endothelium (E−) pre-contracted with 1 μM PHE, FIG. 5B
[9] = Rattus norvegicus, increasing doses up to 10^−4 M, E−
[10] = dose 10^−8 (head: mg/Kgweight; text: M), intravenous
[11] = dose 10^−9 (head: mg/Kgweight; text: M), intravenous
[12] = dose 10^−10 (head: mg/Kgweight; text: M), intravenous

Question: For `CC(=O)OCC[N+](C)(C)C` [ACh, acetylcholine, reference compound], which Emax at 1 µM ([1]; Rattus norvegicus, 10^−6 M ACh, rings with intact endothelium (E+), FIG. 5A, read-out: Emax (% relaxation), positive control) is on record?
Answer: 105 ± 5%

Question: What does the source list for `CC(C)NCC(O)COc1cccc2ccccc12` (centres unmarked) [propranolol, reference compound]?
Answer: % MBP reduction [2, 4]: 18.99 ± 4.35% and 22.29 ± 3.20%; MBP [2, 4]: 110.1 ± 6.03 mmHg and 108.70 ± 8.55 mmHg

Question: `C=C(C)[C@@H]1Cc2cc(C(C)=O)c(O)cc2O1` [Metabolite (B), 6-hydroxy-2-isopropenyl-5-acetyl-2,3-dihydrobenzofuran] was tested. Which Emax at 100 µM [1, 5] did it give?
Answer: 135 ± 3.78%

Question: And the EC50 [1, 6]?
Answer: 7.16 nM

Question: And the Emax at 100 µM [1, 7]?
Answer: 112 ± 6.21%

Question: What about the “concentration from which the vasodilator effect started” value ([1]; dose-response curve, E+) of the same molecule?
Answer: ≥ 10^−8 M

Question: What about the Emax at 100 µM [3, 8] of the same molecule?
Answer: 146 ± 4.49%

Question: And the EC50 ([3]; Rattus norvegicus, E−)?
Answer: 5.94 nM

Question: And the Emax [3, 9]?
Answer: 109 ± 7.53%

Question: Which results are given for `CC(C)=CCc1cc(/C(C)=N/O)ccc1O` [Oxime (1), 4-hydroxy-3-(isopenten-2-yl)-acetophenoxime]?
Answer: % MBP reduction ([2]; dose 10^−7 (head: mg/Kgweight; text: M), intravenous, maximum effect): 70.61 ± 4.32%; % MBP reduction ([2]; dose 10^−7 (head: mg/Kgweight; text: M), intravenous, maximum effect, listed as oxime (1)): 70.61±4.32%; MBP ([2]; dose 10^−7 (head: mg/Kgweight; text: M), intravenous): 41.65 ± 0.85 mmHg; % MBP reduction [2, 10]: 58.31 ± 3.26%; MBP [2, 10]: 59.05 ± 2.09 mmHg; % MBP reduction [2, 11]: 38.41 ± 2.35%; MBP [2, 11]: 87.28 ± 1.90 mmHg; % MBP reduction [2, 12]: 36.60 ± 7.90%; MBP [2, 12]: 89.84 ± 10.88 mmHg; concentration from which the effect on MBP starts being significant ([2]; intravenous, anesthetized rats): ≥ 10^−9 M; doses that induced acute hypotension and subsequent animal death by cardiac arrest ([2]; intravenous, anesthetized rats): higher than 10^−7 M; Emax at 100 µM [1, 5]: 130 ± 2.54%; EC50 [1, 6]: 6 nM; Emax at 100 µM [1, 7]: 119 ± 3.92%; tissue relaxation ([1]; at concentration 10^−5 M, dose-response curve, E+): 101.6±0.90%; concentration from which the vasodilator effect started ([1]; dose-response curve, E+): ≥ 10^−9 M; Emax at 100 µM [3, 8]: 120 ± 1.74%; EC50 ([3]; Rattus norvegicus, E−): 6.56 nM; Emax [3, 9]: 114 ± 6.19%

Question: What does the source list for `C=C(C)C1Cc2cc(C(C)=NO)c(O)cc2O1` (centres unmarked) [Oxime (2), 6-hydroxy-2-isopropenyl-5-acetyloxime-2,3-dihydrobenzofuran]?
Answer: Emax (% relaxation) ([1]; compound at 10^−4 M, rings with intact endothelium (E+) pre-contracted with 1 μM PHE, FIG. 5A): 118.4±0.93%; concentration from which the vasodilator effect started ([1]; dose-response curve, E+): ≥ 10^−8 M; EC50 ([1]; dose-response curve, E+): 4.3 nM; Emax (% relaxation) of dose-response curve ([1]; maximum effect at 10^−4 M, increasing doses, E+): 109.3±2.72%; Emax, maximum relaxation effect ([3]; compound at 10^−4 M, rings without endothelium (E−) pre-contracted with 1 μM PHE, FIG. 5B): 117.7±1.00%; EC50 ([3]; E−): 4.65 nM; Emax (% relaxation) of dose-response curve ([3]; increasing doses up to 10^−4 M, E−): 110.3±4.40%

Question: Which results are given for `CC(=O)c1ccc(O)c(CC=C(C)C)c1` [Metabolite (A), 4-hydroxy-3-(isopenten-2-yl)-acetophenone]?
Answer: % MBP reduction ([2]; dose 10^−4 M, intravenous): 46.93±1.01%; MBP ([2]; dose 10^−4 M, intravenous): 72.12 ± 2.92 mmHg; % MBP reduction ([2]; dose 10^−4 M, intravenous, listed as Metabolite 1): 46.93 ± 1.01%; % MBP reduction ([2]; dose 10^−5 M, intravenous): 45.37 ± 1.09%; MBP ([2]; dose 10^−5 M, intravenous): 74.24 ± 2.76 mmHg; % MBP reduction ([2]; dose 10^−6 M, intravenous): 35.92 ± 2.01%; MBP ([2]; dose 10^−6 M, intravenous): 87.09 ± 1.14 mmHg; % MBP reduction ([2]; dose 10^−7 M, intravenous): 29.68 ± 3.42%; MBP ([2]; dose 10^−7 M, intravenous): 95.56 ± 5.01 mmHg; % MBP reduction ([2]; dose 10^−8 M, intravenous): 25.68 ± 5.24%; MBP ([2]; dose 10^−8 M, intravenous): 101.0 ± 8.06 mmHg; % MBP reduction ([2]; dose 10^−9 M, intravenous): 23.62 ± 5.76%; MBP ([2]; dose 10^−9 M, intravenous): 103.8 ± 7.98 mmHg; % MBP reduction ([2]; dose 10^−10 M, intravenous): 16.56 ± 9.38%; MBP ([2]; dose 10^−10 M, intravenous): 113.4 ± 12.59 mmHg; concentration from which the effect on MBP starts being significant ([2]; intravenous, anesthetized rats): ≥ 10^−6 M; Emax at 100 µM [1, 5]: 122 ± 2.09%; EC50 [1, 6]: 8.98 nM; Emax at 100 µM [1, 7]: 111 ± 7.62%; concentration from which the vasodilator effect started ([1]; dose-response curve, E+): ≥ 10^−8 M; Emax at 100 µM [3, 8]: 118 ± 10.7%; EC50 ([3]; Rattus norvegicus, E−): 7.31 nM; Emax [3, 9]: 109 ± 7.53%

Source: US9663453B2, “Metabolites and oximes with vasodilator and hypotensive activity” (Universidad de Antofagasta, priority 2014, dated 2017)
